Patent US20050113459A1, “Compositions for diabetes” (priority 2002, published 2005)

What was measured:
rats = details: daily dose of 1,200 mg/Kg for 52 weeks; cited from earlier work
GK rats = assay: Blood glycosylated hemoglobin (hemoglobin A1c) level of GK rats fed for 12 weeks; type: in vivo, rat; details: GK rats fed for 12 weeks with 0.1 wt% in feedstuff
From the text: (§1) The improvement effects of the reduced coenzyme Q10 and the oxidized coenzyme Q10 on the glucose tolerance were examined using model GK rats (5 weeks old, male) having Type II diabetes. The rats were fed ad libitum with a powdered feedstuff containing 0.1 percent by weight of the reduced coenzyme Q10 (containing 2 percent by weight of the oxidized coenzyme Q10) or a feedstuff containing 0.1 percent by weight of the oxidized coenzyme Q10. In order to avoid the reduced coenzyme Q10 in the feedstuff mixture from decreasing due to oxidation, the feedstuff was completely replaced with a new one every two days. The control group was fed with a powdered feedstuff free of coenzyme Q10. The glucose tolerance test was conducted four weeks and six weeks after the feeding of the feedstuff mixture was started (n=4 in each group). In the glucose tolerance test, a 50% glucose solution was orally administered at a dose of 4 ml/kg, and the blood glucose level was measured before the administration and 30 minutes, 60 minutes, 90 minutes, and 120 minutes after the administration. The blood glucose level in blood collected from the tail vein was determined with a simple blood glucose meter.
The blood glycosylated hemoglobin (hemoglobin Alc) level of GK rats fed for 12 weeks was measured as in EXAMPLE 1. […]

[1] = test system: model GK rats having Type II diabetes; assay: Glucose tolerance test in model GK rats having Type II diabetes fed coenzyme Q10 feedstuff; type: in vivo, rat
From the text: as §1

[2] = 0.1 wt% in feedstuff, after six weeks of administration
[3] = after four weeks and six weeks of administration

Row | SMILES | toxic effects in chronic toxicity test (rats) | Hemoglobin A1c level (GK rats) | increase in blood glucose level 30 minutes after the glucose load, in comparison with the control group ([1]; 0.1 wt% in feedstuff, after four weeks of administration, oral glucose load) | glucose tolerance in comparison with that after four weeks [1, 2] | blood glucose level from about an hour after the glucose load, in comparison with the control group [1, 3] | blood glucose level in comparison with the oxidized coenzyme Q10 group ([1]; 0.1 wt% in feedstuff, after four weeks of administration, all measurement times beginning with 30 minutes after the glucose load) | blood glucose level ([1]; 0.1 wt% in feedstuff, after six weeks of administration, all measurement points of glucose tolerance test) | increase in blood glucose level after glucose load ([1]; 0.1 wt% in feedstuff, after six weeks of administration, all measurement times) | blood glucose level 30 minutes after the peak, versus control group [1, 3]
1 | COC1=C(OC)C(=O)C(C/C=C(\C)CC/C=C(\C)CC/C=C(\C)CC/C=C(\C)CC/C=C(\C)CC/C=C(\C)CC/C=C(\C)CC/C=C(\C)CC/C=C(\C)CCC=C(C)C)=C(C)C1=O [coenzyme Q10] | no toxic effects | – | – | – | – | – | – | – | –
2 | COC1=C(OC)C(=O)C(C/C=C(\C)CC/C=C(\C)CC/C=C(\C)CC/C=C(\C)CC/C=C(\C)CC/C=C(\C)CC/C=C(\C)CC/C=C(\C)CC/C=C(\C)CCC=C(C)C)=C(C)C1=O [oxidized coenzyme Q10, reference compound] | – | 4.93 ± 0.42% | significantly inhibited | further improvements | no large difference | – | – | – | –
3 | COc1c(O)c(C)c(C/C=C(\C)CC/C=C(\C)CC/C=C(\C)CC/C=C(\C)CC/C=C(\C)CC/C=C(\C)CC/C=C(\C)CC/C=C(\C)CC/C=C(\C)CCC=C(C)C)c(O)c1OC [reduced coenzyme Q10] | – | 4.17 ± 0.15% | – | improved to a greater extent | – | sharply decreased | ≤ 200 mg/dL | strongly inhibited | significantly lower
